Source: patent publication US7576112B2, “Therapeutic N-aryl or N-heteroaryl pyrazolidine and pyrazolidinone derivatives” (Allergan, Inc., priority 2006, dated 2009)

Experiments:
EP2 [1] = biological target: T1, EP2 (Homo sapiens, UniProt P43116); assay: EP2 flipr functional assay; format: cell-based
Text: (§1) U.S. patent application Ser. No. 11/553,143, filed on Oct. 26, 2006, incorporated by reference herein, describes the methods used to obtain the in vitro data in the table below.

EP4 = EP4 (Homo sapiens, UniProt P35408); assay: EP4 binding (Ki)
Chain of EP4 (P35408 whole entry): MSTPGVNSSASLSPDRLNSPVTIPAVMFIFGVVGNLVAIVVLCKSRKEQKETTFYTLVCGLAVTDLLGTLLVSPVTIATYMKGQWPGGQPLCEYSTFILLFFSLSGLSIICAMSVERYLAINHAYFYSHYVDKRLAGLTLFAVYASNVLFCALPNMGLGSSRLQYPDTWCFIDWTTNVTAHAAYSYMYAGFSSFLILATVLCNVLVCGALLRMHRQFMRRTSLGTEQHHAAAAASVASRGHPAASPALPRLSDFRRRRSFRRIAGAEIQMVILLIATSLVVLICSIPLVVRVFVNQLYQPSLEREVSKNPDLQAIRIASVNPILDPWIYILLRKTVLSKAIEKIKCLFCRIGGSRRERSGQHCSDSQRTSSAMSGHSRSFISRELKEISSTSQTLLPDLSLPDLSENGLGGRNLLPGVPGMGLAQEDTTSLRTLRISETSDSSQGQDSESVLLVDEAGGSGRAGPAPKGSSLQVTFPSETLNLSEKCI
Text: as §1

EP2 [2] = biological target: T1, EP2; assay: EP2 cAMP assay; format: cell-based
Text: as §1

hEP3A = biological target: T2, hEP3A (Homo sapiens, UniProt P43115); assay: Other receptors functional assay, hEP3A; format: cell-based
T2 sequence (P43115 1-390): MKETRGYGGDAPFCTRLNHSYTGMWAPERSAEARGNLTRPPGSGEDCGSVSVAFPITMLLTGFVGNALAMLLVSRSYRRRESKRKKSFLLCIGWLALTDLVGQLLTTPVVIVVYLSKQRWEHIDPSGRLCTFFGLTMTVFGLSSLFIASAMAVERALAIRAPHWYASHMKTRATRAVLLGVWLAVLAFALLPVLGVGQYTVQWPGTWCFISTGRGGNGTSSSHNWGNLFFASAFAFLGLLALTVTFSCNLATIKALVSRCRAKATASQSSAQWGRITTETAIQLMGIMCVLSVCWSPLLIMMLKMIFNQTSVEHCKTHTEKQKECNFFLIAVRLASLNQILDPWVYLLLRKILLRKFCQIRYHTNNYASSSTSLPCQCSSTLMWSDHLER
Text: as §1

EP2 [3] = biological target: T1, EP2; assay: EP2 binding (Ki)
Text: as §1

T1 sequence (P43116 whole entry): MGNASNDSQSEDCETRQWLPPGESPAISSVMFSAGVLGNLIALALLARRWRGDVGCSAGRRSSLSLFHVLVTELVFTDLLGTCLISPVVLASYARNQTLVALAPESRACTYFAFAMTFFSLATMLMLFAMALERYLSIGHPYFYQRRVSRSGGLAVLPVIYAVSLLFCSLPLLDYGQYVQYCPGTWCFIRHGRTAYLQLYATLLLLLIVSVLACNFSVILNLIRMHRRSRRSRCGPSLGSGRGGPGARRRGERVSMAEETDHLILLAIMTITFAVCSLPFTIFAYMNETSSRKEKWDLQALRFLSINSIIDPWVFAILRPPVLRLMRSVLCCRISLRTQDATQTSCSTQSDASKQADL

- EC50 (EP2 [1]): 79 nM
- Ki (EP4): > 10000 nM
- EC50 (EP2 [2]): 1.8 nM
- EC50 (hEP3A): 5070 nM
- Ki (EP2 [3]): 251 nM
SMILES: CCCCC[C@H](O)c1ccc(N2C(=O)CCN2CCCc2ccc(C(=O)O)s2)cc1 (stereo in doubt) [5-(3-(2-(4-(1-hydroxyhexyl)phenyl)-3-oxopyrazolidin-1-yl)propyl)thiophene-2-carboxylic Acid]
